Experimental data: patent publication US12486298B2, “Fucosyltransferase specific inhibition using fucose mimetics” (THE FLORIDA INTERNATIONAL UNIVERSITY BOARD OF TRUSTEES, priority 2020, dated 2025)
“Also recorded” adds a separate entry of the source.

Tests used:
Assay type in all cases: cell-based
[1] = target: T1, fucosyltransferase VII (FTVII) (Homo sapiens, UniProt Q11130); test: FTVII exofucosylation of RPMI-8402 cells, sLe^x by flow cytometry
T1 sequence (Q11130 37-342 limits assumed): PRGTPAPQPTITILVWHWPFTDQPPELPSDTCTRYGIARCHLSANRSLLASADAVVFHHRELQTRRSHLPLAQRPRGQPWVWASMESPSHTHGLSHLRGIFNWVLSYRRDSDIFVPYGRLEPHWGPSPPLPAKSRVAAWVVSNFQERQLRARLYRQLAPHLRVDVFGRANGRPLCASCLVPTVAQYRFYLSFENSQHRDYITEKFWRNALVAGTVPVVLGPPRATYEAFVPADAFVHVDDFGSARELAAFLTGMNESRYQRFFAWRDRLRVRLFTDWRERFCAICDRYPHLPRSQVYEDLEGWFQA
Experimental: (§1) A Canto II (BD Biosciences) flow cytometer was utilized for flow cytometry and the data acquired was analyzed using FlowJo Software (Treestar). Cells were stained using antibodies specific to sLe^X (Alexa-Fluor 488 Mouse Anti-Human CD15s (BD Biosciences)), or Le^X (APC anti-human CD15 (SSEA-1) Antibody (BioLegend)).
(§2) Cells of the RPMI-8402 cell line and MSC cell line were treated with either 0.3 ug of fucosyltransferase VI (FTVI), 2.7 ug of fucosyltransferase VII (FTVII), 1.0 ug fucosyltransferase IX (FTIX) or buffer-only at 37° C. for 60 minutes. All reactions contained at 1×10^6 cells/30 ul in HBSS with 10 mM Hepes, 0.1% Human Serum Albumin, and 1.0 mM GDP fucose (GDP-Fuc) (Carbosynth) and the appropriate fucosytransferase. Then, mimetic 1 was added to each of the treatment groups in molar equivalents with respect to GDP-Fuc with each of the fucosytransferases. The treatment groups were as follows: 1:1 GDP-Fuc to mimetic 1 (i.e., 1.0 mM GDP-Fuc and 1.0 mM mimetic), 1:2 GDP-Fuc to mimetic 1 (i.e., 1.0 mM GDP-Fuc and 2.0 mM mimetic), or preincubated in presence of FT with a 2.0 mM solution of the mimetic 1 for 45 minutes followed by addition of a 1.0 mM solution of GDP-Fuc for 1 hour. Concentrations of the various FTs were utilized that would maximize the MFI to allow the detection of the efficacy of mimetic 1 to inhibit the various enzymes.
(§3) Exofucosylation is a technique whereby a pertinent FT together with GDP-Fuc is placed in a cell suspension to stereoselectively install fucose on pertinent acceptor cell surface glycan(s). For the case of α-1,3-FTs, this approach provides the ability to pinpoint the effect(s) of mimetic addition on creation of fucosylated glycans Le^x and sLe^x, while keeping the rest of the cell's biological functions and its viability intact. Specifically, this study focused on three α-1,3-FTs that can create sLe^x and Le^x determinants: FTVII, FTIX, and FTVI. To assess enzymatic activity, two cell types were utilized, the human lymphoblastic leukemia cell line RPMI-8402 and human mesenchymal stem cells (MSCs).
Mimetic 1 (FIG. 1) was tested as an inhibitor of FT-mediated exofucosylation on these cells and the extent of fucosylation was monitored using antibodies that detect the creation of the relevant fucosylated epitopes, i.e., sLe^x or Le^x. Cells were treated directly with reaction buffer containing the relevant FTs together with 1.0 mM GDP-Fuc and cells untreated with FTs (UT) were used as reference reaction negative control (FIGS. 2A, 2B, 2C, 3, 4A and 4B). […]
Moreover, a pre-incubation protocol was also analyzed, wherein the cell suspension was pre-treated with FTVII and a 2.0 mM solution of mimetic 1 followed by addition of 1.0 mM solution of GDP-Fuc (Pre).

[2] = target: T2, fucosyltransferase VI (FTVI) (Homo sapiens, UniProt P51993); test: FTVI exofucosylation of RPMI-8402 cells, sLe^x and Le^x by flow cytometry
T2 construct: purchased R&D systems
T2 sequence (P51993 35-359 limits assumed): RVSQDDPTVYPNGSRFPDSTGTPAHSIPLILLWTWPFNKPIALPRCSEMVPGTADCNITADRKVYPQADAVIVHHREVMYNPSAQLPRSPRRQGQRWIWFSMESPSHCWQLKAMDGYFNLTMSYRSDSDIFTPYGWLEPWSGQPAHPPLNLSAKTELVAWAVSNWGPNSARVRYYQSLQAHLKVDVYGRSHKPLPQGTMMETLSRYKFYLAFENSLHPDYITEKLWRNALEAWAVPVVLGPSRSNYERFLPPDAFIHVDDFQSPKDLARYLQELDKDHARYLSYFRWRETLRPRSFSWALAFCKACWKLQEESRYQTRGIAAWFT
Experimental: A titration of GDP-Fucose was carried out to determine the maximum mean fluorescent intensity (MFI) of sLe^X and Le^X via flow cytometry for downstream inhibition experiments. Generally, 1×10^6 cells were used in each FTVI exofucosylation reaction and all reactions were carried out in triplicate. Cells were then stained with either Alexa-Fluor 488 Mouse Anti-Human CD15s (BD Biosciences), or APC anti-human CD15 (SSEA-1) Antibody (BioLegend). Cells were then acquired on a Canto II (BD Biosciences) flow cytometer and analylized using Flowjo software (Treestar). FTVI was purchased from R&D systems.
as §1, §2
as §3, with “To assess enzymatic activity, two cell types were utilized, the human lymphoblastic leukemia cell line RPMI-8402 and human mesenchymal stem cells (MSCs).” left out
(§4) Mimetic 1 (FIG. 1) was tested as an inhibitor of FT-mediated exofucosylation on these cells and the extent of fucosylation was monitored using antibodies that detect the creation of the relevant fucosylated epitopes, i.e., sLe^x or Le^x. […]

[3] = target: T2, fucosyltransferase VI (FTVI); test: FTVI exofucosylation of mesenchymal stem cells (MSC), sLe^x and Le^x by flow cytometry; conditions: MSCs; 1.0 mM GDP-Fuc with 1.0 mM or 2.0 mM mimetic 1
Experimental: as §1
Cells of the RPMI-8402 cell line and MSC cell line were treated with either 0.3 ug of fucosyltransferase VI (FTVI), 2.7 ug of fucosyltransferase VII (FTVII), 1.0 ug fucosyltransferase IX (FTIX) or buffer-only at 37° C. for 60 minutes. All reactions contained at 1×10^6 cells/30 ul in HBSS with 10 mM Hepes, 0.1% Human Serum Albumin, and 1.0 mM GDP fucose (GDP-Fuc) (Carbosynth) and the appropriate fucosytransferase. Then, mimetic 1 was added to each of the treatment groups in molar equivalents with respect to GDP-Fuc with each of the fucosytransferases. […]
as §4

[4] = RPMI-8402 cells, 1.0 mM GDP-Fuc with 1.0 mM or 2.0 mM mimetic 1
[5] = titration of mimetic 1, 1.0 mM GDP-Fuc, RPMI-8402 cells, bell-shaped curve

`CC1OC2Oc3ccc(CC(=O)O)cc3SC2C(O)C1O` (stereo not shown) [mimetic 1] was tested, and the “inhibition of FTVII-driven sLe^x expression” value [1, 4] was “able to inhibit FTVII-driven sLe^x expression”, the “extent of inhibition, FTVII compared with FTVI” value ([1]; at 2.0 mM mimetic 1, 1.0 mM GDP-Fuc) was “slightly higher extent of inhibition on FTVII over FTVI” and the “inhibition of FTVII sLe^x production after pre-incubation” value ([1]; pre-incubation of FTVII with 2.0 mM mimetic 1 for 45 minutes, then 1.0 mM GDP-Fuc for 1 hour) was “significant inhibition of sLe^x production; also recorded: inhibited more completely”. The “concentration of highest inhibition against FTVII” value [1, 5] was 2.0 mM, the “inhibition of FTVI production of Le^x” value [2, 4] was “clearly inhibited” and the “inhibition of FTVI production of sLe^x” value [2, 4] was “markedly diminished”. The “inhibition of FTVI-mediated exofucosylation after pre-incubation” value ([2]; pre-incubation with 2.0 mM mimetic 1 prior to addition of GDP-Fuc) was “inhibited more completely”, the “concentration of highest inhibition against FTVI” value [2, 5] was 2.0 mM and the “inhibition of FTVI production of Le^x” value [3] was “clearly inhibited”. For the same molecule, the “inhibition of FTVI production of sLe^x” value [3] was “markedly diminished”.
